Measurements from patent US5399487A, “6-peptidylamino-1-naphthalenesulfonamides useful as fluorogenic proteolytic enzyme substrates” (Haematologic Technologies, Inc., priority 1993, dated 1995).

Assays:
Format in all cases: biochemical
thrombin (IIa) = biological target: T1, thrombin (IIa) (Homo sapiens, UniProt P00734); assay: Fluorogenic enzyme assay (Example 5)
T1 construct: 0.5 nM human thrombin (IIa)
In short: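 Run in TBS (20 mM Tris, 150 mM NaCl, pH 7.4) at 22° C. Enzyme was added to buffer plus fluorogenic substrate, and the initial hydrolysis rate was followed as release of a 6-amino-1-naphthalenesulfonamide fluorophore (ex 352 nm, em 470 nm), quantified against a fluorophore standard curve. Km and kcat came from Michaelis-Menten fits.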

factor VIIa [1] = biological target: T2, factor VIIa (Homo sapiens, UniProt P08709); assay: Factor VIIa substrate hydrolysis in presence and absence of tissue factor (FIG. 2)
T2 construct: directly measure the enzymatic activity of factor VIIa in the presence and absence of tissue factor and phospholipid
T2 sequence (P08709 213-466 limits assumed): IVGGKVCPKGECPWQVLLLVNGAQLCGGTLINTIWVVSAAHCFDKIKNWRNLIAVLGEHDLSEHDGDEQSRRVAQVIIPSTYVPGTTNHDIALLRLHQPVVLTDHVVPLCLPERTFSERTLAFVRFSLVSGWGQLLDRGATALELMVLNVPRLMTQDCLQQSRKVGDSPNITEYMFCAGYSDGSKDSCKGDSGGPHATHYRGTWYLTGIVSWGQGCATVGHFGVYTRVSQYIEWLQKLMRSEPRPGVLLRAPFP
T2 sequence (P08709 61-212 limits assumed): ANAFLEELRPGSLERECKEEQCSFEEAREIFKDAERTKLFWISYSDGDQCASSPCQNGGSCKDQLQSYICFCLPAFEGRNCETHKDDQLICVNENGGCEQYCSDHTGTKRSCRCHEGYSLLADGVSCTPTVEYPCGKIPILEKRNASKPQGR
Text: (§1) When coupled to methanesulfonyl-D-leucinyl-glycinyl-arginine(Mes-D-Leu-Gly-Arg), 6-amino-1-(N,N-diethyl)napthalenesulfonamide the resulting substrate yielded significant reactivity with factor VIIa. This substrate was sufficiently reactive with factor VIIa to allow reliable quantitation of factor VIIa activity at concentrations of about 10^-9 M. Further, this substrate was useful for the measurement of factor VIIa activity when it was bound to its co-factor protein tissue factor. The interaction of tissue factor with factor VIIa enhanced the factor VIIa dependent substrate hydrolysis by 120 fold. Thus, the invention provides unique substrates suitable for measuring both the activity of factor VIIa directly and in complex reactions involving the interaction between tissue factor and factor VIIa.
(§2) The binding of factor VIIa to tissue factor was analyzed by factor VIIa substrate hydrolysis when complexed with tissue factor. Tissue factor was relipidated into PC or PCPS vesicles as described above. The final concentration of tissue factor and phospholipid used for all binding studies was 2 nM and 200 μM respectively. In control experiments where tissue factor was in excess, 50 nM tissue factor and 200 μM PCPS vesicles were used. Recombinant factor VIIa (0.5 to 20 nM) was added to assembled TF/phospholipid complex and incubated for 15 minutes at 37° C. in HBS. The reaction was started by the addition of substrate (40 μM final) and the rate of substrate hydrolysis as reported by an increase in fluorescent intensity was recorded as described above in Example 5. The instrument was standardized daily using a 1 μM stock of the 6-amino-1-(N,N-diethyl)napthalenesulfonamide in HBS at 37° C. as described above.
(§3) The increase in the rate of factor VIIa substrate hydrolysis, both in the presence and absence of tissue factor, is linear over the concentration range tested, as shown in FIG. 2. […] In FIG. 2, filled triangles represent the rate of substrate hydrolysis as a function of increasing factor VIIa concentrations with an excess of tissue factor ([…]) in the assay. […]

factor VIIa [2] = assay: as above; conditions: with vs without tissue factor
Text: as §1, §2, §3

SMILES: CCN(CC)S(=O)(=O)c1cccc2cc(NC(=O)[C@H](CCCNC(=N)N)NC(=O)CNC(=O)[C@@H](CC(C)C)NS(C)(=O)=O)ccc12 [MesD-LPR-ANSN(C2 H5)2, 6-(Mes-D-Leu-Gly-Arg)amino-1-(N,N-diethyl)napththalenesulfonamide]
- TIME TO 10% HYDROLYSIS (HOURS), IIa (thrombin (IIa); 10 nM enzyme, substrate 1 μM): 0.33 h
- Km (thrombin (IIa); Table 9): 31.6 µM
- kcat /Km, IIa (thrombin (IIa); Table 9): 20000 M⁻¹ s⁻¹
- kcat, IIa (thrombin (IIa); Table 9): 0.63 s⁻¹
- factor VIIa concentration allowing reliable quantitation of factor VIIa activity (factor VIIa [1]): about 10^-9 M
- enhancement of factor VIIa dependent substrate hydrolysis by tissue factor (factor VIIa [2]; listed as 6-(Mes-D-Leu-Gly-Arg)amino-1-(N,N-diethyl)naphthalenesulfonamide): 120 fold
- enhancement of factor VIIa dependent substrate hydrolysis by tissue factor (factor VIIa [2]; listed as factor VIIa substrate): > 100 fold
